Where “and” joins values, the source holds several entries; their conditions need not be identical. Equal entries are not always repeated. Where two headings read alike, the source gives them in different places.
Assays:
[1] = biological target: T1, SaFtsZ (Staphylococcus aureus, UniProt P0A031); test: Surface plasmon resonance analysis; format: binding, S. aureus; conditions: SPR, immobilized SaFtsZ, 25°C, steady-state
T1 construct: purchased Cytoskeleton, Inc. FTZ02
T1 sequence (P0A031 1-390): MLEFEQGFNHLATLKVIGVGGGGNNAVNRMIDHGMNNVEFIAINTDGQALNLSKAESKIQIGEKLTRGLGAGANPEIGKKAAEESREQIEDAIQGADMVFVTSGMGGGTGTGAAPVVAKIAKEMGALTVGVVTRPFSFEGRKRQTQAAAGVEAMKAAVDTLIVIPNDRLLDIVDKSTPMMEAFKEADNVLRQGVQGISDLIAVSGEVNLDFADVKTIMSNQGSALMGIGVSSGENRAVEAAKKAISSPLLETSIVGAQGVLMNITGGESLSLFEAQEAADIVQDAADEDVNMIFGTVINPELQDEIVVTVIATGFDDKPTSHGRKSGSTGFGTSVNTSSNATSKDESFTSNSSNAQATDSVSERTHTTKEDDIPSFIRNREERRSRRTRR
Method: SPR analysis was performed using a Biacore X100 system (Cytiva, USA) equipped with a CM5 sensor chip at 25°C. SaFtsZ protein was immobilized onto the chip surface via standard amine coupling. Briefly, flow cells 1 (Fc1) and 2 (Fc2) were activated with a 1:1 mixture of 0.4 M EDC and 0.1 M NHS for 7 min. The SaFtsZ protein was diluted to 40 μg/mL in 0.1 M sodium acetate buffer (pH 4.0) and immobilized onto Fc2. The response units (RU) reaching an immobilization level of approximately 4693.2. Unreacted sites in both flow cells were blocked with ethanolamine for 7 min. Subsequently, analyte solutions containing test compounds at varying concentrations were injected over both flow cells, and binding responses were monitored in real time. Data analysis was performed using Biacore Evaluation Software v2.0.2.
We first performed SPR spectroscopy to experimentally measure the binding affinities of AA, MA, and UA for immobilized SaFtsZ protein.

[2] = tested on: MRSA-4; test: TEM analysis of septum formation; format: cell-based, Methicillin-resistant S. aureus; conditions: 1 × MIC, 4 h
Method: MRSA-4 was cultured in MHB to mid-log phase as described above. The cultures were then treated with AA, MA, or UA (at 1 × MIC) or with an equal volume of PBS (negative control) for 4 h at 37°C. After treatment, bacterial suspensions were collected by centrifugation at 13,000 × g for 3 min, and the resulting pellets were washed with PBS. Pellets were fixed in 2.5% glutaraldehyde prepared in 0.1 M cacodylate buffer (pH 7.2). Following fixation, samples were dehydrated in a graded ethanol series (30 to 100%), with 100% ethanol replaced three times. Samples were infiltrated with acetone/Epon-812 resin mixtures at ratios of 3:1, 1:1, and 1:3, then embedded in pure Epon-812 resin. Ultrathin sections (60–90 nm) were cut and placed on copper grids. The sections were stained with saturated uranyl acetate for 10–15 min, followed by lead citrate for 1–2 min. Structural and morphological changes in the bacterial cells were observed using a JEOL JEM-1400FLASH transmission electron microscope (JEOL, Japan).
We first evaluated the impact of AA, MA, and UA on septum formation in MRSA-4 cells using TEM. MRSA-4 cultures were treated with AA, MA, or UA at 1 × MIC for 4 h, with PBS-treated cells serving as the control. […] These abnormalities imply that AA, MA, and UA disrupt the septum formation process, which is essential for successful cell division.

[3] = tested on: MRSA-4; test: MRSA skin infection model; format: in vivo, BALB/c mice
Method: All animal experiments were conducted in accordance with the NIH Guide for the Care and Use of Laboratory Animals and the institutional guidelines of West China Hospital, Sichuan University. The study was approved by the Institutional Animal Care and Use Committee (HX20220224085). Female BALB/c mice (6–8 weeks old) were obtained from Chengdu DOSSY Experimental Animal Co., Ltd. (Chengdu, China) and randomly assigned to five groups (n = 6 per group). On day 0, mice were subcutaneously inoculated with 2 × 10^8 CFUs of MRSA-4 suspended in 50 μL of sterile PBS. Treatment commenced 24 h post-infection. Mice received once daily subcutaneous injections at the site of infection for four consecutive days with either AA (0.2, 0.4, or 0.8 mg/kg), vancomycin (0.8 mg/kg, positive control), or PBS (negative control). Lesion progression was monitored daily by photographing the infected area, and wound sizes were quantified using ImageJ software (Version 1.42q, NIH, USA). On day 5 post-infection, mice were anesthetized and euthanized. The whole lesioned skin tissues were aseptically excised, homogenized in 1 mL of sterile PBS, and serially diluted. Aliquots were plated on LB agar and incubated at 37°C overnight to determine bacterial burdens.
Building on its rapid bactericidal activity in vitro and unique FtsZ-binding profile, we next evaluated the in vivo therapeutic efficacy of AA using a murine skin infection model. The model was established in BALB/c mice by subcutaneous inoculation with 2 × 10^8 CFU of MRSA-4 (Figure 7A). Treatment began 24 h post-infection and consisted of daily subcutaneous injections at the infection site for four consecutive days with AA (0.2, 0.4, or 0.8 mg/kg), vancomycin (at 0.8 mg/kg; positive control), or PBS (negative control). Therapeutic outcomes were assessed on day 5 post-infection by quantifying bacterial burden, visually monitoring wound healing, and measuring abscess size.

[4] = read-out: equilibrium dissociation constant (Kd)
[5] = 0.8 mg/kg s.c. once daily for 4 days, day 5, vs PBS

Compound	Kd [1, 4]	septum formation (TEM) [2]	Kd ([1]; equilibrium dissociation constant (Kd))	wound healing (visual inspection) ([3]; 0.8 mg/kg s.c. once daily for 4 days)	abscess size [3, 5]	bacterial load in infected skin tissues [3, 5]	bacterial load in infected skin tissues ([3]; 0.2 and 0.4 mg/kg s.c. once daily for 4 days, day 5, vs PBS)	wound healing (visual inspection) ([3]; low-dose (0.2 and 0.4 mg/kg) s.c. once daily for 4 days)
CC1(C)CC[C@]2(C(=O)O)CC[C@]3(C)C(=CC[C@@H]4[C@@]5(C)C[C@@H](O)[C@H](O)C(C)(C)[C@@H]5CC[C@]43C)[C@@H]2C1 [MA, maslinic acid]	9800 nM and 9760 nM	incomplete, mislocalized, or absent septa						
C[C@H]1[C@H](C)CC[C@]2(C(=O)O)CC[C@]3(C)C(=CC[C@@H]4[C@@]5(C)C[C@@H](O)[C@H](O)[C@@](C)(CO)[C@@H]5CC[C@]43C)[C@H]12 [AA, asiatic acid]		incomplete, mislocalized, or absent septa	2400 nM	substantial amelioration of symptoms	significantly reduced abscess dimensions	significantly reduced bacterial counts	modest but dose-responsive decreases in bacterial load	moderate, dose-dependent improvements in wound appearance
C[C@H]1[C@H](C)CC[C@]2(C(=O)O)CC[C@]3(C)C(=CC[C@@H]4[C@@]5(C)CC[C@H](O)C(C)(C)[C@@H]5CC[C@]43C)[C@H]12 [UA, ursolic acid]	700 nM and 663 nM	incomplete, mislocalized, or absent septa						

From publication PMC12213745, “Compounds from Cyclocarya paliurus leaves inhibit binary division of methicillin-resistant Staphylococcus aureus by disrupting FtsZ dynamic” (Frontiers in Microbiology, 2025)
